Assay results published in US9649512B2, “One or more of Vigna marina, Cocos nucifera L. or Terminalia catappa L. extracts for treating wounds, skin disorders and hair loss” (CIMTECH PTY LIMITED, priority 2009, dated 2017).

Tested on: epithelial surface of the backs of 18 month old ovarectomized and sham ovarectomized rats
Assay: Parallel study of moisturiser and antibiotic on epithelial thickness
Assay type: in vivo, rat
Text: In a parallel study a moisturiser (hydroderm), the topical antibiotic Chloromycetin (chloramphenicol), coconut oil, or coconut oil extracted into ethanol were applied to the epithelial surface of the backs of 18 month old ovarectomized and sham ovarectomized rats and compared to the epithelial surface of an adjacent untreated site. […] The results also indicate that the changes noted in the epithelium are not related to any antimicrobial capacity of the extracts as the changes are not able to be replicated by chloramphenicol.

O=C(N[C@H](CO)[C@H](O)c1ccc([N+](=O)[O-])cc1)C(Cl)Cl [Chloromycetin (chloramphenicol), chloramphenicol]
thickness of the treated skin compared to the untreated adjacent skin: No significant difference
